Laboratory results published in US9302999B2, “Substituted triazoles as herbicides” (E. I. DU PONT DE NEMOURS AND COMPANY, priority 2012, dated 2016).

Legend:
Type in all cases: in vivo
[1] = tested on: barnyardgrass (Echinochloa crus-galli); experiment: Test C flooded paddy test: barnyardgrass; details: scale 0 to 100 (0 no effect, 100 complete control)
Summary of the method: (§1)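 Plants at 2-leaf stage in pots flooded 3 cm above soil; compounds applied directly into the paddy water, depth maintained. Visual rating against controls after 13–15 days in greenhouse, scale 0 (no effect) to 100 (complete control).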

[2] = tested on: corn (Zea mays); experiment: Test A pre-/postemergence: corn; details: for Corn plant response rating: Postemergence; for Plant response rating, Corn: Preemergence
Summary of the method: (§2)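 Compounds, formulated with surfactant in non-phytotoxic solvent, were applied as a directed soil spray preemergence and as postemergence sprays to 2–10 cm, one- to two-leaf seedlings grown in loam soil blended with sand; visual injury, 0–100, assessed ~10 days post-treatment against untreated controls.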

[3] = tested on: barnyardgrass (Echinochloa crus-galli); experiment: Test A pre-/postemergence: barnyardgrass; details: for Barnyardgrass plant response rating: Postemergence; for Plant response rating, Barnyardgrass: Preemergence
Summary of the method: as §2

[4] = tested on: crabgrass, large (large crabgrass, Digitaria sanguinalis); experiment: Test A pre-/postemergence: crabgrass, large; details: for Crabgrass, Large plant response rating: Postemergence; for Plant response rating, Crabgrass, Large: Preemergence
Summary of the method: as §2

[5] = tested on: pigweed (Amaranthus retroflexus); experiment: Test A pre-/postemergence: pigweed; details: for Pigweed plant response rating: Postemergence; for Plant response rating, Pigweed: Preemergence
Summary of the method: as §2

[6] = tested on: rice (Oryza sativa); experiment: Test C flooded paddy test: rice; details: scale 0 to 100 (0 no effect, 100 complete control)
Summary of the method: as §1

[7] = tested on: foxtail, giant (giant foxtail, Setaria faberii); experiment: Test A pre-/postemergence: foxtail, giant; details: for Foxtail, Giant plant response rating: Postemergence; for Plant response rating, Foxtail, Giant: Preemergence
Summary of the method: as §2

[8] = tested on: sedge, umbrella (small-flower umbrella sedge, Cyperus difformis); experiment: Test C flooded paddy test: sedge, umbrella; details: scale 0 to 100 (0 no effect, 100 complete control)
Summary of the method: as §1

[9] = tested on: ducksalad (Heteranthera limosa); experiment: Test C flooded paddy test: ducksalad; details: scale 0 to 100 (0 no effect, 100 complete control)
Summary of the method: as §1

[10] = tested on: wheat (Triticum aestivum); experiment: Test A pre-/postemergence: wheat; details: for Wheat plant response rating: Postemergence; for Plant response rating, Wheat: Preemergence
Summary of the method: as §2

[11] = tested on: velvetleaf (Abutilon theophrasti); experiment: Test A pre-/postemergence: velvetleaf; details: for Velvetleaf plant response rating: Postemergence; for Plant response rating, Velvetleaf: Preemergence
Summary of the method: as §2

[12] = tested on: morningglory (Ipomoea spp.); experiment: Test A pre-/postemergence: morningglory; details: for Morningglory plant response rating: Postemergence; for Plant response rating, Morningglory: Preemergence
Summary of the method: as §2

[13] = Flood (flooded paddy test), 62 g ai/ha, visual rating after 13 to 15 days
[14] = Flood (flooded paddy test), 125 g ai/ha, visual rating after 13 to 15 days
[15] = Flood (flooded paddy test), 250 g ai/ha, visual rating after 13 to 15 days
[16] = 125 g ai/ha, 0 to 100 scale, 0 is no effect, 100 is complete control
[17] = 500 g ai/ha, visual rating on 0 to 100 scale (0 no effect, 100 complete control), approximately ten days
[18] = 125 g ai/ha, 0 to 100 scale (0 no effect, 100 complete control)
[19] = 500 g ai/ha, 0 to 100 scale, 0 is no effect, 100 is complete control

Cc1nn(-c2ccccc2[N+](=O)[O-])nc1C(=O)c1cccc(C(F)(F)F)c1 [Compound 63]
Plant response rating, Barnyardgrass [1, 13]: 0
Plant response rating, Barnyardgrass [1, 14]: 0
Plant response rating, Barnyardgrass [1, 15]: 0
Plant response rating, Barnyardgrass ([1]; Flood, 31 g ai/ha): 0
Corn plant response rating [2, 16]: 0
Corn plant response rating [2, 17]: 0
Plant response rating, Corn [2, 18]: 0
Plant response rating, Corn [2, 19]: 0
Barnyardgrass plant response rating [3, 16]: 0
Barnyardgrass plant response rating [3, 17]: 0
Plant response rating, Barnyardgrass [3, 18]: 0
Plant response rating, Barnyardgrass [3, 19]: 0
Crabgrass, Large plant response rating [4, 16]: 0
Crabgrass, Large plant response rating [4, 17]: 0
Plant response rating, Crabgrass, Large [4, 18]: 0
Plant response rating, Crabgrass, Large [4, 19]: 0
Pigweed plant response rating [5, 16]: 0
Pigweed plant response rating [5, 17]: 10
Plant response rating, Pigweed [5, 18]: 0
Plant response rating, Pigweed [5, 19]: 0
Plant response rating, Rice [6, 13]: 0
Plant response rating, Rice [6, 14]: 0
Plant response rating, Rice [6, 15]: 0
Plant response rating, Rice ([6]; Flood, 31 g ai/ha): 0
Foxtail, Giant plant response rating [7, 16]: 0
Foxtail, Giant plant response rating [7, 17]: 0
Plant response rating, Foxtail, Giant [7, 18]: 0
Plant response rating, Foxtail, Giant [7, 19]: 0
Plant response rating, Sedge, Umbrella [8, 13]: 0
Plant response rating, Sedge, Umbrella [8, 14]: 0
Plant response rating, Sedge, Umbrella [8, 15]: 0
Plant response rating, Sedge, Umbrella ([8]; Flood, 31 g ai/ha): 0
Plant response rating, Ducksalad [9, 13]: 0
Plant response rating, Ducksalad [9, 14]: 0
Plant response rating, Ducksalad [9, 15]: 0
Plant response rating, Ducksalad ([9]; Flood, 31 g ai/ha): 0
Wheat plant response rating [10, 16]: 0
Wheat plant response rating [10, 17]: 0
Plant response rating, Wheat [10, 18]: 0
Plant response rating, Wheat [10, 19]: 0
Velvetleaf plant response rating [11, 16]: 0
Velvetleaf plant response rating [11, 17]: 0
Plant response rating, Velvetleaf [11, 18]: 0
Plant response rating, Velvetleaf [11, 19]: 0
Morningglory plant response rating [12, 16]: 0
Morningglory plant response rating [12, 17]: 0
Plant response rating, Morningglory [12, 18]: 0
Plant response rating, Morningglory [12, 19]: 0

Cc1nn(-c2cncc(C(F)(F)F)c2)nc1C(=O)c1cccc(C(F)(F)F)c1 [Compound 66]
Plant response rating, Barnyardgrass [1, 13]: 0
Plant response rating, Barnyardgrass [1, 15]: 0
Corn plant response rating [2, 16]: 0
Corn plant response rating [2, 17]: 10
Plant response rating, Corn [2, 18]: 0
Plant response rating, Corn [2, 19]: 0
Barnyardgrass plant response rating [3, 16]: 0
Barnyardgrass plant response rating [3, 17]: 10
Plant response rating, Barnyardgrass [3, 18]: 0
Plant response rating, Barnyardgrass [3, 19]: 0
Crabgrass, Large plant response rating [4, 16]: 10
Crabgrass, Large plant response rating [4, 17]: 10
Plant response rating, Crabgrass, Large [4, 18]: 10
Plant response rating, Crabgrass, Large [4, 19]: 50
Pigweed plant response rating [5, 16]: 10
Pigweed plant response rating [5, 17]: 30
Plant response rating, Pigweed [5, 18]: 0
Plant response rating, Pigweed [5, 19]: 10
Plant response rating, Rice [6, 13]: 0
Plant response rating, Rice [6, 15]: 0
Foxtail, Giant plant response rating [7, 16]: 0
Foxtail, Giant plant response rating [7, 17]: 10
Plant response rating, Foxtail, Giant [7, 18]: 10
Plant response rating, Foxtail, Giant [7, 19]: 70
Plant response rating, Sedge, Umbrella [8, 13]: 0
Plant response rating, Sedge, Umbrella [8, 15]: 0
Plant response rating, Ducksalad [9, 13]: 0
Plant response rating, Ducksalad [9, 15]: 0
Wheat plant response rating [10, 16]: 0
Wheat plant response rating [10, 17]: 10
Plant response rating, Wheat [10, 18]: 0
Plant response rating, Wheat [10, 19]: 0
Velvetleaf plant response rating [11, 16]: 0
Velvetleaf plant response rating [11, 17]: 10
Plant response rating, Velvetleaf [11, 18]: 0
Plant response rating, Velvetleaf [11, 19]: 0
Morningglory plant response rating [12, 16]: 0
Morningglory plant response rating [12, 17]: 10
Plant response rating, Morningglory [12, 18]: 0
Plant response rating, Morningglory [12, 19]: 0

Cc1nn(-c2cccc(C(F)(F)F)c2)nc1Oc1cccc(C(F)(F)F)c1 [Compound 70]
Plant response rating, Barnyardgrass [1, 13]: 0
Plant response rating, Barnyardgrass [1, 14]: 0
Plant response rating, Barnyardgrass [1, 15]: 0
Plant response rating, Barnyardgrass ([1]; Flood, 31 g ai/ha): 0
Corn plant response rating [2, 16]: 10
Corn plant response rating [2, 17]: 20
Plant response rating, Corn [2, 18]: 0
Plant response rating, Corn [2, 19]: 0
Barnyardgrass plant response rating [3, 16]: 0
Barnyardgrass plant response rating [3, 17]: 10
Plant response rating, Barnyardgrass [3, 18]: 0
Plant response rating, Barnyardgrass [3, 19]: 0
Crabgrass, Large plant response rating [4, 16]: 10
Crabgrass, Large plant response rating [4, 17]: 30
Plant response rating, Crabgrass, Large [4, 18]: 0
Plant response rating, Crabgrass, Large [4, 19]: 40
Pigweed plant response rating [5, 16]: 40
Pigweed plant response rating [5, 17]: 100
Plant response rating, Pigweed [5, 18]: 0
Plant response rating, Pigweed [5, 19]: 10
Plant response rating, Rice [6, 13]: 0
Plant response rating, Rice [6, 14]: 0
Plant response rating, Rice [6, 15]: 0
Plant response rating, Rice ([6]; Flood, 31 g ai/ha): 0
Foxtail, Giant plant response rating [7, 16]: 10
Foxtail, Giant plant response rating [7, 17]: 20
Plant response rating, Foxtail, Giant [7, 18]: 0
Plant response rating, Foxtail, Giant [7, 19]: 50
Plant response rating, Sedge, Umbrella [8, 13]: 0
Plant response rating, Sedge, Umbrella [8, 14]: 0
Plant response rating, Sedge, Umbrella [8, 15]: 0
Plant response rating, Sedge, Umbrella ([8]; Flood, 31 g ai/ha): 0
Plant response rating, Ducksalad [9, 13]: 0
Plant response rating, Ducksalad [9, 14]: 0
Plant response rating, Ducksalad [9, 15]: 0
Plant response rating, Ducksalad ([9]; Flood, 31 g ai/ha): 0
Wheat plant response rating [10, 16]: 0
Wheat plant response rating [10, 17]: 10
Plant response rating, Wheat [10, 18]: 0
Plant response rating, Wheat [10, 19]: 0
Velvetleaf plant response rating [11, 16]: 10
Velvetleaf plant response rating [11, 17]: 50
Plant response rating, Velvetleaf [11, 18]: 0
Plant response rating, Velvetleaf [11, 19]: 0
Morningglory plant response rating [12, 16]: 10
Morningglory plant response rating [12, 17]: 20
Plant response rating, Morningglory [12, 18]: 0
Plant response rating, Morningglory [12, 19]: 0

Cc1nn(-c2ccc(F)cc2)nc1Oc1ccnc(OCC(F)(F)F)c1 [Compound 71]
Plant response rating, Barnyardgrass [1, 13]: 0
Plant response rating, Barnyardgrass [1, 14]: 0
Plant response rating, Barnyardgrass [1, 15]: 0
Plant response rating, Barnyardgrass ([1]; Flood, 31 g ai/ha): 0
Corn plant response rating [2, 16]: 0
Corn plant response rating [2, 17]: 10
Plant response rating, Corn [2, 18]: 0
Plant response rating, Corn [2, 19]: 0
Barnyardgrass plant response rating [3, 16]: 0
Barnyardgrass plant response rating [3, 17]: 10
Plant response rating, Barnyardgrass [3, 18]: 0
Plant response rating, Barnyardgrass [3, 19]: 0
Crabgrass, Large plant response rating [4, 16]: 10
Crabgrass, Large plant response rating [4, 17]: 10
Plant response rating, Crabgrass, Large [4, 18]: 0
Plant response rating, Crabgrass, Large [4, 19]: 10
Pigweed plant response rating [5, 16]: 10
Pigweed plant response rating [5, 17]: 40
Plant response rating, Pigweed [5, 18]: 0
Plant response rating, Pigweed [5, 19]: 0
Plant response rating, Rice [6, 13]: 0
Plant response rating, Rice [6, 14]: 0
Plant response rating, Rice [6, 15]: 0
Plant response rating, Rice ([6]; Flood, 31 g ai/ha): 0
Foxtail, Giant plant response rating [7, 16]: 10
Foxtail, Giant plant response rating [7, 17]: 10
Plant response rating, Foxtail, Giant [7, 18]: 0
Plant response rating, Foxtail, Giant [7, 19]: 0
Plant response rating, Sedge, Umbrella [8, 13]: 0
Plant response rating, Sedge, Umbrella [8, 14]: 0
Plant response rating, Sedge, Umbrella [8, 15]: 0
Plant response rating, Sedge, Umbrella ([8]; Flood, 31 g ai/ha): 0
Plant response rating, Ducksalad [9, 13]: 0
Plant response rating, Ducksalad [9, 14]: 0
Plant response rating, Ducksalad [9, 15]: 0
Plant response rating, Ducksalad ([9]; Flood, 31 g ai/ha): 0
Wheat plant response rating [10, 16]: 0
Wheat plant response rating [10, 17]: 0
Plant response rating, Wheat [10, 18]: 0
Plant response rating, Wheat [10, 19]: 0
Velvetleaf plant response rating [11, 16]: 0
Velvetleaf plant response rating [11, 17]: 10
Plant response rating, Velvetleaf [11, 18]: 0
Plant response rating, Velvetleaf [11, 19]: 0
Morningglory plant response rating [12, 16]: 10
Morningglory plant response rating [12, 17]: 10
Plant response rating, Morningglory [12, 18]: 0
Plant response rating, Morningglory [12, 19]: 0
